Reference: patent EP0457908A1, “HYDROCHLORIDE 2,3,3a,4,5,6-HEXAHYDRO-8-CYCLOHEXYL-1H-PYRAZINO (3,2,1-j,k)CARBAZOL, METHOD OF OBTAINING IT AND A PHARMACEUTICAL PREPARATION OF ANTIDEPRESSIVE ACTION BASED ON IT” (priority 1989, dated 1991)
Like-named read-outs stand apart in the source and are kept apart here.

Tests used:
[1] = tested on: fruit fly, embryonic cells of rats, bone-marrow cells of mice, culture of human lymphocytes; assay: Mutagenous effect tests; settings: genetic mutations, dominant lethal mutations, chromosome aberrations
Experimental: The compound according to the present invention was also tested for a possible mutagenous effect by methods of evaluation of genetic mutations on fruit fly: dominant lethal mutations were studied on embryonic cells of rats, chromosome aberrations - in bone-marrow cells of mice and in a culture of human lymphocytes.

rats = assay: Acute toxicity, rats; assay type: in vivo
Text: (§1) The acute and chronical toxicity of the compound according to the present invention was studied on mice, rats and rabbits.

Solubility = assay type: physicochemical
male rats = assay: Conditional reflex of passive avoidance after amnesia (antiamnestic effect); assay type: in vivo; settings: 1 mg/kg oral
Experimental: Also studied was the effect of the compound according to the present invention on reproduction of the memory traces upon amnesia.
The experiments were carried out using male rats of a mass of 180-220 g.
The antiamnestic effect of the compound according to the present invention was assessed by the method of a conditional reflex of a passive avoidance with a subsequent use, as amnesic factors, of an electric shock (50 mA, 0.3 ms) through ear electrodes or scopolamine (1 mg/kg hypodermally).
The learning of the conditional reflex of a passive avoidance was effected by the "Step-down" method (Izquerdo, 1981) in an experimental unit consisting of a 30x30x40 cm chamber with an electrified floor having in its centre a plastic platform of 10x15x0.5 cm size. A rat was placed onto the platform and a latent period of its escape therefrom was recorded (in seconds). When escaping the platform onto the floor, the rat was subjected to an electric irritation on paws (0.5 mA, 10 seconds) that made it to climb the platform. The learning course took 6 sessions, each of 3 minutes duration. The conditional response was regarded as acquired if an animal remained on the platform for 1 minute.
The amnesic effect was produced immediately after learning course and 30 minutes thereafter the compound according to the present invention was administered in the doses of 1 and 3 mg/kg or (for comparison) pyracetam was administered in the doses of 100, 300, 600 and 1,000 mg/kg. The reproduction of the memory trace was assessed 24 hours after the electric shock and 2.5 hours after administration of scopolamine.

mice = assay: Acute toxicity, mice; assay type: in vivo
Text: as §1

white mice = assay: Porsolt's swimming behaviour test (duration of immobilization); assay type: in vivo; settings: for Duration of immobilization, %: distilled water = 100
Experimental: The effect of the compound according to the present invention on the duration of immobilization in Porsolt's swimming behaviour test (Porsolt et al., 1977) in experiments on white mice of both sexes with a mass of 16-18 g. […] Sixty minutes after the last (or a single) administration of the preparations, the mice were placed into cylinders (10 cm diameter, 25 cm height) filled with water to 6 cm. The temperature of water was 21-22 °C. […] The number and duration of all stops in swimming (immobilization) over the observation period were recorded.

monoaminoxidase = biological target: T1, monoaminoxidase (Rattus norvegicus, UniProt P21396); assay: Monoaminoxidase activity in brain and liver homogenates after oral dosing; assay type: in vivo, male white rats
T1 sequence (P21396 1-526): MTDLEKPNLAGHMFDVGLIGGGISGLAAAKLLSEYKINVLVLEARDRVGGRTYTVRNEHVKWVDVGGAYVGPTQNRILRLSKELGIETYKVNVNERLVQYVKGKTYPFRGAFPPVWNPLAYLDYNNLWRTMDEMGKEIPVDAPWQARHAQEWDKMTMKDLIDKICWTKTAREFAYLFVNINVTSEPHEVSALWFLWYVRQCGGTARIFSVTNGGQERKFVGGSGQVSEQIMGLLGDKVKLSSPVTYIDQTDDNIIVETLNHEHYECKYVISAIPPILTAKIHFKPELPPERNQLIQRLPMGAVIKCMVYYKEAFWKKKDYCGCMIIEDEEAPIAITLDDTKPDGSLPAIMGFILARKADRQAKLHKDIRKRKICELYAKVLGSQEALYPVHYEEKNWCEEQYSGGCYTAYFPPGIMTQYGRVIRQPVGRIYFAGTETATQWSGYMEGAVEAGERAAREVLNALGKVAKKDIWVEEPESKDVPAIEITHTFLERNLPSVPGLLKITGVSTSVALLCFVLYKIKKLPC
Experimental: The effect of the compound according to the present invention on the activity of monoaminoxidase was studied in special biochemical investigations.
The experiments were conducted in vivo on male white rats with a mass of 180-200 g. The compound in the doses of 5, 10, 25 and 50 mg/kg was administered orally. An equal volume of a […] of NaCl was administered to control animals. 1.5 hour after administration of the drug the animals were killed. […] The activity of monoaminoxidase was determined in 50% homogenates of the liver and brains of rate prepared on the basis of a 0.1 M phosphate buffer (pH = 7.4) containing 2% of a detergent - Trytol X-100. The substrates were used in concentrations of serotonin 10 µmol, tyramine 6 µmol per sample. The activity of monoaminoxidase was evaluated by liberation of ammonia during incubation of the samples for 50 minutes at the temperature of 37 °C in an oxygen atmosphere.
Protein in homogenates of the rat liver and brain was determined following the Peterson procedure (1977).

[2] = Overall comparison of pharmacological parameters with pyrazidol; assay type: in vivo; settings: certain pharmacological parameters
[3] = 5-days' administration, 1.0 mg/kg orally (dose from row order)
[4] = 5-days' administration, 2.5 mg/kg orally (dose from row order)
[5] = 5-days' administration, 5.0 mg/kg orally (dose from row order)
[6] = 18-days' administration, 2.5 mg/kg orally (dose from row order)
[7] = 18-days' administration, 5.0 mg/kg orally (dose from row order)
[8] = single administration, 1.0 mg/kg orally
[9] = single administration, 2.5 mg/kg orally
[10] = single administration, 5.0 mg/kg orally
[11] = 10 mg/kg oral, 1.5 hour after administration
[12] = 25 mg/kg oral, 1.5 hour after administration (Table 5)
[13] = 25 mg/kg orally, time 1.5 hours (Table 6)
[14] = 25 mg/kg orally, time 6.0 hours
[15] = 25 mg/kg orally, time 48.0 hours
[16] = 50 mg/kg oral, 1.5 hour after administration

2,3,3a,4,5,6-hexahydro-8-cyclohexyl-1H-pyrazino-(3,2,1-j,k)-carbazole hydrochloride [Compound of the present invention]
mutagenic properties [1]: revealed no mutagenic properties | LD₅₀ (rats): 2.5 g/kg | LD₅₀ (rats; oral administration): 2,500 mg/kg | solubility in a 95% ethanol and chloroform (Solubility): very sparingly soluble | solubility in water and ether (Solubility): substantially insoluble | Number of rats, %, remained on the platform for 1 minute, 2.5 hours after administration of scopolamine (1 mg/kg hypodermally) (male rats; amnesia control 10±3.3, distilled water 85±2.0): 22±6.0% | Number of rats, %, remained on the platform for 1 minute, 1 day after electric shock (male rats; electroshock alone 14.2±3.0, distilled water 85±2.0): 25±3.2% | LD₅₀ (mice; oral administration, mice): 1,300 mg/kg | LD₅₀ (mice; white mice): 1.3 g/kg | Duration of immobilization, Seconds, M±m (white mice; [3]): 102 ± 8.1 s | Duration of immobilization, % (white mice; [3]): 61% | Duration of immobilization, Seconds, M±m (white mice; [4]): 102 ± 6.1 s | Duration of immobilization, % (white mice; [4]): 61% | Duration of immobilization, Seconds, M±m (white mice; [5]): 88 ± 5.2 s | Duration of immobilization, % (white mice; [5]): 53% | Duration of immobilization, % (white mice; 18-days' administration, 1.0 mg/kg orally (dose from row order)): 58% | Duration of immobilization, Seconds, M±m (white mice; [6]): 96 ± 11.0 s | Duration of immobilization, % (white mice; [6]): 52% | Duration of immobilization, Seconds, M±m (white mice; [7]): 75 ± 9.8 s | Duration of immobilization, % (white mice; [7]): 41% | active in doses lower than those of imipramine and pyrazidol (white mice; Porsolt's test, mice, oral): 10 times | Duration of immobilization, Seconds, M±m (white mice; [8]): 145 ± 10.4 s | Duration of immobilization, % (white mice; [8]): 92% | Duration of immobilization, Seconds, M±m (white mice; [9]): 111 ± 9.9 s | Duration of immobilization, % (white mice; [9]): 69% | Duration of immobilization, Seconds, M±m (white mice; [10]): 105 ± 8.1 s | Duration of immobilization, % (white mice; [10]): 63% | Inhibition of deamination, % (M±m), Liver, Serotonin (monoaminoxidase; 5 mg/kg oral, 1.5 hour after administration): 36±9.0% | Inhibition of deamination, % (M±m), Brain, Serotonin (monoaminoxidase; 5 mg/kg oral, 1.5 hour after administration, listed as Compound of the invention, hydrochloride): 60±6.3% | Inhibition of deamination, % (M±m), Brain, Serotonin (monoaminoxidase; 5 mg/kg oral, 1.5 hour after administration, listed as compound according to the present invention, hydrochloride): 60% | Inhibition of deamination, % (M±m), Brain, Serotonin (monoaminoxidase; [11]): 61±7.6% | Inhibition of deamination, % (M±m), Liver, Serotonin (monoaminoxidase; [11]): 27±6.7% | Inhibition of deamination, % (M±m), Brain, Serotonin (monoaminoxidase; [12]): 71±7.6% | Inhibition of deamination, % (M±m), Liver, Serotonin (monoaminoxidase; [12]): 64±6.4% | Inhibition of deamination, % (M±m), Brain, Serotonin (monoaminoxidase; [13]): 71.0±2.0% | Inhibition of deamination, % (M±m), Liver, Serotonin (monoaminoxidase; [13]): 64.0±6.4% | Inhibition of deamination, % (M±m), Brain, Serotonin (monoaminoxidase; [14]): 66.5±3.0% | Inhibition of deamination, % (M±m), Liver, Serotonin (monoaminoxidase; [14]): 53.0±3.0% | Inhibition of deamination, % (M±m), Brain, Serotonin (monoaminoxidase; [15]): 14.0±4.8% | Inhibition of deamination, % (M±m), Liver, Serotonin (monoaminoxidase; [15]): 0% | Inhibition of deamination, % (M±m), Brain, Serotonin (monoaminoxidase; [16]): 93±3.0% | Inhibition of deamination, % (M±m), Liver, Serotonin (monoaminoxidase; [16]): 89±2.7% | more active than the known preparation pyrazidol [2]: 2-10 times
